# Assay results published in US9850203B2, “Autotaxin inhibitor compounds” (PharmAkea, Inc., priority 2013, dated 2017).
# Molecular target: human autotaxin (ATX) (Homo sapiens (Human), UniProt Q13822)
# Assay: Human Autotaxin Assay
# Format: biochemical
# Conditions: concentrated conditioned media from Hep3B cells; LPC substrate, choline release
# Method: ATX activity is assayed in concentrated conditioned media from Hep3B human hepatocellular carcinoma cells by measuring the amount of choline released from the substrate, lysophosphatidylcholine (LPC) as it is cleaved to LPA. Conditioned media is collected from confluent Hep3B cells and concentrated 20-fold using Centriprep-30 filter devices (Millipore). To assay for autotaxin inhibition, 10-20 μL of the concentrated conditioned media is incubated with 2.5 μL of a test compound in DMSO and 72.5-82.5 μL lyso-PLD buffer (100 mM Tris pH 9, 500 mM NaCl, 5 mM MgCl2, 5 mM CaCl2, 0.05% Triton X-100 in the presence or absence of 0.2% fatty-acid-free human serum albumin) for 15 min at 37° C. After the 15 min incubation, 5 uL of 2 mM LPC (14:0; Avanti Polar Lipids Cat#855575C) diluted in lyso-PLD buffer is added for a final concentration of 100 uM and the incubation continues for 1.5-3 hours at 37° C.
row,IC50,SMILES
1,≤ 500 nM,"Cc1c(Sc2cccc(C(=O)O)c2)c2ccc(Cl)c(F)c2n1CC(=O)N1CCc2ccccc2C1 [Compound 1-79, 3-((6-Chloro-1-(2-(3,4-dihydroisoquinolin-2(1H)-yl)-2-oxoethyl)-7-fluoro-2-methyl-1H-indol-3-yl)thio)benzoic acid]"
2,≤ 500 nM,"Cc1c(Sc2cccc(C(=O)O)c2)c2ccc(Cl)c(F)c2n1CC(=O)N1CCCC1 [Compound 1-9, 3-((6-Chloro-7-fluoro-2-methyl-1-(2-oxo-2-(pyrrolidin-1-yl)ethyl)-1H-indol-3-yl)thio)benzoic acid]"
3,500 to 3000 nM,"Cc1c(Sc2cccc(C(=O)O)c2)c2ccc(Cl)c(F)c2n1CC(=O)N1CCC(CCc2ccccc2)CC1 [Compound 1-62, 3-((6-Chloro-7-fluoro-2-methyl-1-(2-oxo-2-(4-phenethylpiperidin-1-yl)ethyl)-1H-indol-3-yl)thio)benzoic acid]"
4,≤ 500 nM,"Cc1ccc2c(c1)CCN2C(=O)Cn1c(C)c(Sc2cccc(C(=O)O)c2)c2ccc(Cl)c(F)c21 [Compound 1-92, 3-((6-Chloro-7-fluoro-2-methyl-1-(2-(5-methylindolin-1-yl)-2-oxoethyl)-1H-indol-3-yl)thio)benzoic acid]"
5,500 to 3000 nM,"Cc1c(Sc2cccc(C(=O)O)c2)c2ccc(Cl)c(F)c2n1CC(=O)NC1CCCCC1 [Compound 1-2, 3-((6-Chloro-1-(2-(cyclohexylamino)-2-oxoethyl)-7-fluoro-2-methyl-1H-indol-3-yl)thio)benzoic acid]"
6,≤ 500 nM,"Cc1c(Sc2cccc(C(=O)O)c2)c2ccc(Cl)c(F)c2n1CC(=O)N1CCC2(CC1)CNC(=O)C2 [Compound 1-45, 3-((6-Chloro-7-fluoro-2-methyl-1-(2-oxo-2-(3-oxo-2,8-diazaspiro[4.5]decan-8-yl)ethyl)-1H-indol-3-yl)thio)benzoic acid]"
7,≤ 500 nM,"Cc1c(Sc2cccc(C(=O)O)c2F)c2ccc(Cl)c(F)c2n1CC(=O)N1CCc2ccncc21 [Compound 2-60, 3-((6-Chloro-1-(2-(2,3-dihydro-1H-pyrrolo[2,3-c]pyridin-1-yl)-2-oxoethyl)-7-fluoro-2-methyl-1H-indol-3-yl)thio)-2-fluorobenzoic acid]"
8,> 3000 nM,"Cc1c(Sc2cccc(C(=O)O)c2)c2ccc(Cl)c(F)c2n1CC(=O)Nc1cc(Cl)cc(Cl)c1 [Compound 1-4, 3-((6-Chloro-1-(2-((3,5-dichlorophenyl)amino)-2-oxoethyl)-7-fluoro-2-methyl-1H-indol-3-yl)thio)benzoic acid]"
9,≤ 500 nM,"Cc1c(Sc2cccc(C(=O)O)c2F)c2ccc(Cl)c(F)c2n1CC(=O)N1CC2(CCC2)c2c(F)cccc21 [Compound 3-96, 3-((6-Chloro-7-fluoro-1-(2-(4′-fluorospiro[cyclobutane-1,3′-indolin]-1′-yl)-2-oxoethyl)-2-methyl-1H-indol-3-yl)thio)-2-fluorobenzoic acid]"
10,≤ 500 nM,"Cc1c(Sc2cccc(C(=O)O)c2F)c2ccc(Cl)c(F)c2n1CC(=O)N1CCC(C)(O)C1 (stereo not shown) [Compound 2-61, 3-((6-Chloro-7-fluoro-1-(2-(3-hydroxy-3-methylpyrrolidin-1-yl)-2-oxoethyl)-2-methyl-1H-indol-3-yl)thio)-2-fluorobenzoic acid]"
11,≤ 500 nM,"Cc1c(Sc2cccc(C(=O)O)c2)c2ccc(Cl)c(F)c2n1CC(=O)N1CCC(OCc2ccc(F)cc2)C1 (stereo not shown) [Compound 1-22, 3-((6-Chloro-7-fluoro-1-(2-(3-((4-fluorobenzyl)oxy)pyrrolidin-1-yl)-2-oxoethyl)-2-methyl-1H-indol-3-yl)thio)benzoic acid]"
12,≤ 500 nM,"Cc1c(Sc2cccc(C(=O)O)c2)c2ccc(Cl)c(F)c2n1CC(=O)N1CC2(CNC(=O)C2)C1 [Compound 1-49, 3-((6-Chloro-7-fluoro-2-methyl-1-(2-oxo-2-(7-oxo-2,6-diazaspiro[3,4]octan-2-yl)ethyl)-1H-indol-3-yl)thio)benzoic acid]"
13,≤ 500 nM,"Cc1c(Sc2cccc(C(=O)O)c2)c2ccc(Cl)c(F)c2n1CC(=O)N1CCC(CCn2cccn2)CC1 [Compound 1-61, 3-((1-(2-(4-(2-(1H-Pyrazol-1-yl)ethyl)piperidin-1-yl)-2-oxoethyl)-6-chloro-7-fluoro-2-methyl-1H-indol-3-yl)thio)benzoic acid]"
14,≤ 500 nM,"Cc1c(Sc2cccc(C(=O)O)c2F)c2ccc(Cl)c(F)c2n1CC(=O)N1CC(O)(C2CC2)C1 [Compound 2-63, 3-((6-Chloro-1-(2-(3-cyclopropyl-3-hydroxyazetidin-1-yl)-2-oxoethyl)-7-fluoro-2-methyl-1H-indol-3-yl)thio)-2-fluorobenzoic acid]"
15,≤ 500 nM,"Cc1c(Sc2cccc(C(=O)O)c2F)c2ccc(Cl)c(F)c2n1CC(=O)N1CC2(CCC2)c2ccccc21 [Compound 3-220, 3-((6-Chloro-7-fluoro-2-methyl-1-(2-oxo-2-(spiro[cyclobutane-1,3′-indolin]-1′-yl)ethyl)-1H-indol-3-yl)thio)-2-fluorobenzoic acid]"
16,≤ 500 nM,"Cc1c(Sc2cccc(C(=O)O)c2)c2ccc(Cl)c(F)c2n1CC(=O)N1CC2(CC2)c2cc(F)ccc21 [Compound 1-32, 3-((6-Chloro-7-fluoro-1-(2-(5′-fluorospiro[cyclopropane-1,3′-indolin]-1′-yl)-2-oxoethyl)-2-methyl-1H-indol-3-yl)thio)benzoic acid]"
17,≤ 500 nM,"Cc1c(Sc2cccc(C(=O)O)c2F)c2ccc(Cl)c(F)c2n1CC(=O)N1C[C@H](O)[C@@H](N2CCOCC2)C1 [Compound 2-65, 3-((6-Chloro-7-fluoro-1-(2-((3S,4S)-3-hydroxy-4-morpholinopyrrolidin-1-yl)-2-oxoethyl)-2-methyl-1H-indol-3-yl)thio)-2-fluorobenzoic acid]"
18,500 to 3000 nM,"Cc1c(Sc2cccc(C(=O)O)c2)c2ccc(Cl)c(F)c2n1CC(=O)N1CCC(c2ccc(F)cc2)C1 (single isomer, unassigned; enantiomer a) [Compound 1-74, 3-((6-Chloro-7-fluoro-1-(2-(3-(4-fluorophenyl)pyrrolidin-1-yl)-2-oxoethyl)-2-methyl-1H-indol-3-yl)thio)benzoic acid Enantiomer A]"
19,≤ 500 nM,"Cc1c(Sc2cccc(C(=O)O)c2)c2ccc(Cl)c(F)c2n1CC(=O)N1CCCC(O)(C(F)(F)F)C1 (stereo not shown) [Compound 1-83, 3-((6-Chloro-7-fluoro-1-(2-(3-hydroxy-3-(trifluoromethyl)piperidin-1-yl)-2-oxoethyl)-2-methyl-1H-indol-3-yl)thio)benzoic acid]"
20,≤ 500 nM,"O=C(O)c1cccc(Sc2c(Cl)n(CCN3CC4(CCC4)c4ccccc43)c3c(F)c(Cl)ccc23)c1F [Compound 5-1, Sodium 3-((2,6-dichloro-7-fluoro-1-(2-(spiro[cyclobutane-1,3′-indolin]-1′-yl)ethyl)-1H-indol-3-yl)thio)-2-fluorobenzoate]"
21,≤ 500 nM,"Cc1c(Sc2cccc(C(=O)O)c2)c2ccc(Cl)c(F)c2n1CC(=O)N1CCC(O)(C(F)(F)F)C1 (stereo not shown) [Compound 1-37, 3-((6-Chloro-7-fluoro-1-(2-(3-hydroxy-3-(trifluoromethyl)pyrrolidin-1-yl)-2-oxoethyl)-2-methyl-1H-indol-3-yl)thio)benzoic acid]"
22,500 to 3000 nM,"Cc1c(Sc2cccc(C(=O)O)c2)c2ccc(Cl)c(F)c2n1CC(=O)N1CCC(Cc2ccc(F)cc2)C1 (single isomer, unassigned; enantiomer b) [Compound 1-66, 3-((6-Chloro-7-fluoro-1-(2-(3-(4-fluorobenzyl)pyrrolidin-1-yl)-2-oxoethyl)-2-methyl-1H-indol-3-yl)thio)benzoic acid Enantiomer B]"
